How the values were obtained:
morningglory = experiment: Test C pre-/postemergence test; assay type: in vivo, Ipomoea coccinea; details: Preemergence; for Morningglory plant response rating: 62 g ai/ha, scale 0 to 100; for Plant response rating, Morningglory: 31 g ai/ha, scale 0 to 100 (0 no effect, 100 complete control)
In short: (§1)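 Test chemicals were formulated with surfactant in a non-phytotoxic solvent and sprayed both on freshly planted seeds (preemergence) and on 1- to 4-leaf plants of 2–18 cm (postemergence). Flooded-paddy pots received compound directly into 3 cm of standing water, maintained for the test.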

crabgrass [1] = experiment: Test A pre-/postemergence greenhouse test; assay type: in vivo, Digitaria sanguinalis; details: for Crabgrass, Large plant response rating: 0 to 100 scale; for Plant response rating, Crabgrass, Large: 0 to 100 scale where 0 is no effect and 100 is complete control
In short: (§2)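 Seeds sown in a loam soil–sand blend got a preemergence directed soil spray of compound in a non-phytotoxic solvent mixture containing surfactant. Postemergence sprays of the same formulation went at the same time onto plants 2–10 cm tall at the one- to two-leaf stage. Injury was scored visually against untreated controls after about ten days in the greenhouse.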

crabgrass [2] = experiment: Test C pre-/postemergence test; assay type: in vivo, Digitaria sanguinalis; details: Preemergence; for Crabgrass, Large plant response rating: 62 g ai/ha, scale 0 to 100; for Plant response rating, Crabgrass, Large: 31 g ai/ha, scale 0 to 100 (0 no effect, 100 complete control); for Plant response rating (0 to 100), Crabgrass, Large: 250 g ai/ha
In short: as §1

velvetleaf = experiment: Test C pre-/postemergence test; assay type: in vivo, Abutilon theophrasti; details: Preemergence; for Velvetleaf plant response rating: 62 g ai/ha, scale 0 to 100; for Plant response rating, Velvetleaf: 31 g ai/ha, scale 0 to 100 (0 no effect, 100 complete control)
In short: as §1

corn [3] = experiment: Test C pre-/postemergence test; assay type: in vivo, Zea mays; details: for Plant response rating, Corn: 31 g ai/ha, scale 0 to 100 (0 no effect, 100 complete control); for Plant response rating (0 to 100), Corn: 250 g ai/ha
In short: as §1

Goosegrass = experiment: Test C pre-/postemergence test; assay type: in vivo, Eleusin indica; details: Preemergence; for Goosegrass plant response rating: 62 g ai/ha, scale 0 to 100; for Plant response rating, Goosegrass: 31 g ai/ha, scale 0 to 100 (0 no effect, 100 complete control); for Plant response rating (0 to 100), Goosegrass: 250 g ai/ha
In short: as §1

giant foxtail = experiment: Test C pre-/postemergence test; assay type: in vivo, Setaria faberii; details: Preemergence; for Foxtail, Giant plant response rating: 62 g ai/ha, scale 0 to 100; for Plant response rating, Foxtail, Giant: 31 g ai/ha, scale 0 to 100 (0 no effect, 100 complete control); for Plant response rating (0 to 100), Foxtail, Giant: 250 g ai/ha
In short: as §1

barnyardgrass = experiment: Test A pre-/postemergence greenhouse test; assay type: in vivo, Echinochloa crus-galli; details: for Barnyardgrass plant response rating: 0 to 100 scale; for Plant response rating, Barnyardgrass: 0 to 100 scale where 0 is no effect and 100 is complete control
In short: as §2

[4] = tested on: common (oilseed) sunflower; experiment: Test C pre-/postemergence test; assay type: in vivo, Helianthus annuus; details: Preemergence; for Sunflower plant response rating: 62 g ai/ha, scale 0 to 100; for Plant response rating, Sunflower: 31 g ai/ha, scale 0 to 100 (0 no effect, 100 complete control)
In short: as §1

wheat = experiment: Test A pre-/postemergence greenhouse test; assay type: in vivo, Triticum aestivum; details: for Wheat plant response rating: 0 to 100 scale; for Plant response rating, Wheat: 0 to 100 scale where 0 is no effect and 100 is complete control
In short: as §2

eastern black nightshade = experiment: Test C pre-/postemergence test; assay type: in vivo, Solanum ptycanthum; details: Preemergence; for Nightshade plant response rating: 62 g ai/ha, scale 0 to 100; for Plant response rating, Nightshade: 31 g ai/ha, scale 0 to 100 (0 no effect, 100 complete control)
In short: as §1

corn [5] = experiment: Test A pre-/postemergence greenhouse test; assay type: in vivo, Zea mays; details: for Corn plant response rating: 0 to 100 scale; for Plant response rating, Corn: 0 to 100 scale where 0 is no effect and 100 is complete control
In short: as §2

johnsongrass = experiment: Test C pre-/postemergence test; assay type: in vivo, Sorghum halepense; details: Preemergence; for Johnsongrass plant response rating: 62 g ai/ha, scale 0 to 100; for Plant response rating, Johnsongrass: 31 g ai/ha, scale 0 to 100 (0 no effect, 100 complete control); for Plant response rating (0 to 100), Johnsongrass: 250 g ai/ha
In short: as §1

umbrella sedge = experiment: Test C flooded paddy test; assay type: in vivo, Cyperus difformis; details: Flood
In short: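 Greenhouse pots flooded to 3 cm above soil at time of treatment received compound via the water, which stayed at that level.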

Italian ryegrass = experiment: Test C pre-/postemergence test; assay type: in vivo, Lolium multiflorum; details: Preemergence; for Ryegrass, Italian plant response rating: 62 g ai/ha, scale 0 to 100; for Plant response rating, Ryegrass, Italian: 31 g ai/ha, scale 0 to 100 (0 no effect, 100 complete control)
In short: as §1

pigweed = experiment: Test C pre-/postemergence test; assay type: in vivo, Amaranthus retroflexus; details: Preemergence; for Pigweed plant response rating: 62 g ai/ha, scale 0 to 100; for Plant response rating, Pigweed: 31 g ai/ha, scale 0 to 100 (0 no effect, 100 complete control)
In short: as §1

Surinam grass = experiment: Test C pre-/postemergence test; assay type: in vivo, Brachiaria decumbens; details: Preemergence; for Surinam Grass plant response rating: 62 g ai/ha, scale 0 to 100; for Plant response rating, Surinam Grass: 31 g ai/ha, scale 0 to 100 (0 no effect, 100 complete control)
In short: as §1

[6] = Postemergence, 125 g ai/ha, 0 is no effect, 100 is complete control
[7] = Postemergence, 500 g ai/ha, 0 is no effect, 100 is complete control
[8] = Preemergence, 125 g ai/ha, 0 no effect, 100 complete control
[9] = 62 g ai/ha, Preemergence, scale 0 to 100
[10] = preemergence, 125 g ai/ha, scale 0 (no effect) to 100 (complete control)
[11] = 31 g ai/ha, scale 0 to 100 (0 no effect, 100 complete control)
[12] = 62 g ai/ha, scale 0 to 100, 0 no effect, 100 complete control, 13 to 15 days
[13] = 125 g ai/ha, scale 0 to 100, 0 no effect, 100 complete control, 13 to 15 days
[14] = 250 g ai/ha, scale 0 to 100, 0 no effect, 100 complete control, 13 to 15 days

With `Cn1nc(C(F)(F)F)c(C[S+]([O-])c2ccc(Cl)c[n+]2[O-])c1Cl` (racemic) [Compound 17] the “Morningglory plant response rating” value (morningglory) was 85, the “Plant response rating, Morningglory” value (morningglory) was 0 and the “Crabgrass, Large plant response rating” value (crabgrass [1]; [6]) was 80. For the same compound, the “Crabgrass, Large plant response rating” value (crabgrass [1]; [7]) was 90, the “Crabgrass, Large plant response rating” value (crabgrass [1]; [8]) was 90 and the “Plant response rating, Crabgrass, Large” value (crabgrass [1]; Preemergence, 500 g ai/ha) was 100. For the same compound, the “Crabgrass, Large plant response rating” value (crabgrass [2]) was 100, the “Plant response rating, Crabgrass, Large” value (crabgrass [2]) was 98 and the “Plant response rating (0 to 100), Crabgrass, Large” value (crabgrass [2]) was 100. For the same compound, the “Velvetleaf plant response rating” value (velvetleaf) was 80, the “Plant response rating, Velvetleaf” value (velvetleaf) was 0 and the “Corn plant response rating” value (corn [3]; [9]) was 85. The “Plant response rating, Corn” value (corn [3]; Preemergence) was 60, the “Plant response rating (0 to 100), Corn” value (corn [3]; Preemergence) was 100 and the “Corn plant response rating” value (corn [3]; [10]) was 98. The “Goosegrass plant response rating” value (Goosegrass) was 100, the “Plant response rating, Goosegrass” value (Goosegrass) was 100 and the “Plant response rating (0 to 100), Goosegrass” value (Goosegrass) was 100. For the same compound, the “Foxtail, Giant plant response rating” value (giant foxtail) was 100, the “Plant response rating, Foxtail, Giant” value (giant foxtail) was 95 and the “Plant response rating (0 to 100), Foxtail, Giant” value (giant foxtail) was 100. The “Barnyardgrass plant response rating” value (barnyardgrass; [6]) was 80, the “Barnyardgrass plant response rating” value (barnyardgrass; [7]) was 90 and the “Barnyardgrass plant response rating” value (barnyardgrass; [8]) was 70. The “Plant response rating, Barnyardgrass” value (barnyardgrass; Preemergence, 500 g ai/ha) was 100, the “Sunflower plant response rating” value [4] was 5 and the “Plant response rating, Sunflower” value [4] was 0. For the same compound, the “Wheat plant response rating” value (wheat; [6]) was 50, the “Wheat plant response rating” value (wheat; [7]) was 60 and the “Wheat plant response rating” value (wheat; [8]) was 50. For the same compound, the “Plant response rating, Wheat” value (wheat; Preemergence, 500 g ai/ha) was 80, the “Nightshade plant response rating” value (eastern black nightshade) was 100 and the “Plant response rating, Nightshade” value (eastern black nightshade) was 98. For the same compound, the “Corn plant response rating” value (corn [5]; [6]) was 50, the “Corn plant response rating” value (corn [5]; [7]) was 60 and the “Corn plant response rating” value (corn [5]; [8]) was 0. For the same compound, the “Plant response rating, Corn” value (corn [5]; Preemergence, 500 g ai/ha) was 80, the “Johnsongrass plant response rating” value (johnsongrass) was 100 and the “Plant response rating, Johnsongrass” value (johnsongrass) was 98. For the same compound, the “Plant response rating (0 to 100), Johnsongrass” value (johnsongrass) was 100, the “Plant response rating, Sedge, Umbrella” value (umbrella sedge; [11]) was 60 and the “Plant response rating, Sedge, Umbrella” value (umbrella sedge; [12]) was 85. For the same compound, the “Plant response rating, Sedge, Umbrella” value (umbrella sedge; [13]) was 95, the “Plant response rating, Sedge, Umbrella” value (umbrella sedge; [14]) was 95 and the “Ryegrass, Italian plant response rating” value (Italian ryegrass) was 60. For the same compound, the “Plant response rating, Ryegrass, Italian” value (Italian ryegrass) was 30, the “Pigweed plant response rating” value (pigweed) was 100 and the “Plant response rating, Pigweed” value (pigweed) was 100. For the same compound, the “Surinam Grass plant response rating” value (Surinam grass) was 95 and the “Plant response rating, Surinam Grass” value (Surinam grass) was 0.
For `Cn1nc(C(F)(F)F)c(CS(=O)(=O)c2ccc(Cl)c[n+]2[O-])c1Cl` [Compound 18], the “Morningglory plant response rating” value (morningglory) was 0, the “Plant response rating, Morningglory” value (morningglory) was 0 and the “Crabgrass, Large plant response rating” value (crabgrass [1]; [6]) was 60. The “Crabgrass, Large plant response rating” value (crabgrass [1]; [7]) was 80, the “Crabgrass, Large plant response rating” value (crabgrass [1]; [8]) was 80 and the “Plant response rating, Crabgrass, Large” value (crabgrass [1]; Preemergence, 500 g ai/ha) was 90. The “Crabgrass, Large plant response rating” value (crabgrass [2]) was 100, the “Plant response rating, Crabgrass, Large” value (crabgrass [2]) was 80 and the “Plant response rating (0 to 100), Crabgrass, Large” value (crabgrass [2]) was 100. The “Velvetleaf plant response rating” value (velvetleaf) was 0, the “Plant response rating, Velvetleaf” value (velvetleaf) was 0 and the “Corn plant response rating” value (corn [3]; [9]) was 0. The “Plant response rating, Corn” value (corn [3]; Preemergence) was 0, the “Plant response rating (0 to 100), Corn” value (corn [3]; Preemergence) was 15 and the “Corn plant response rating” value (corn [3]; [10]) was 0. The “Goosegrass plant response rating” value (Goosegrass) was 100, the “Plant response rating, Goosegrass” value (Goosegrass) was 90 and the “Plant response rating (0 to 100), Goosegrass” value (Goosegrass) was 100. For the same compound, the “Foxtail, Giant plant response rating” value (giant foxtail) was 85, the “Plant response rating, Foxtail, Giant” value (giant foxtail) was 65 and the “Plant response rating (0 to 100), Foxtail, Giant” value (giant foxtail) was 100. The “Barnyardgrass plant response rating” value (barnyardgrass; [6]) was 60, the “Barnyardgrass plant response rating” value (barnyardgrass; [7]) was 80 and the “Barnyardgrass plant response rating” value (barnyardgrass; [8]) was 90. The “Plant response rating, Barnyardgrass” value (barnyardgrass; Preemergence, 500 g ai/ha) was 100, the “Sunflower plant response rating” value [4] was 0 and the “Plant response rating, Sunflower” value [4] was 0. The “Wheat plant response rating” value (wheat; [6]) was 0, the “Wheat plant response rating” value (wheat; [7]) was 30 and the “Wheat plant response rating” value (wheat; [8]) was 0. The “Plant response rating, Wheat” value (wheat; Preemergence, 500 g ai/ha) was 20, the “Nightshade plant response rating” value (eastern black nightshade) was 60 and the “Plant response rating, Nightshade” value (eastern black nightshade) was 60. The “Corn plant response rating” value (corn [5]; [6]) was 0, the “Corn plant response rating” value (corn [5]; [7]) was 50 and the “Corn plant response rating” value (corn [5]; [8]) was 0. For the same compound, the “Plant response rating, Corn” value (corn [5]; Preemergence, 500 g ai/ha) was 0, the “Johnsongrass plant response rating” value (johnsongrass) was 100 and the “Plant response rating, Johnsongrass” value (johnsongrass) was 5. For the same compound, the “Plant response rating (0 to 100), Johnsongrass” value (johnsongrass) was 100, the “Plant response rating, Sedge, Umbrella” value (umbrella sedge; [11]) was 0 and the “Plant response rating, Sedge, Umbrella” value (umbrella sedge; [12]) was 0. The “Plant response rating, Sedge, Umbrella” value (umbrella sedge; [13]) was 80, the “Plant response rating, Sedge, Umbrella” value (umbrella sedge; [14]) was 85 and the “Ryegrass, Italian plant response rating” value (Italian ryegrass) was 0. The “Plant response rating, Ryegrass, Italian” value (Italian ryegrass) was 0, the “Pigweed plant response rating” value (pigweed) was 100 and the “Plant response rating, Pigweed” value (pigweed) was 100. The “Surinam Grass plant response rating” value (Surinam grass) was 0 and the “Plant response rating, Surinam Grass” value (Surinam grass) was 0.

Source: patent publication US20100298141A1, “SUBSTITUTED PYRIDINE N-OXIDE HERBICIDES” (E. I. DU PONT DE NEMOURS AND COMPANY, priority 2007, published 2010)
